Source: patent publication EP4198126B1 (priority 2021, dated 2023)
Read-outs that look alike come from different tables or passages of the source.

Columns and labels:
HEK293 eTLR cells [1] = conditions: for HDR rates: compounds added 24 hours post-transfection, FACS 72 h after transfection, Figure 2A
HEK293 eTLR cells [2] = conditions: treated four hours before transfection; FACS 72 h after transfection; Figure 3
[3] = test system: CRISPR-mediated homology-directed repair (HDR); conditions: description of the known compound; cited from earlier work

Molecule	HDR rates (HEK293 eTLR cells [1])	concentration at which the HDR rates are maximally increased (HEK293 eTLR cells [1]; range tested 0.5 to 2 µM, Figure 2B)	HDR rates (HEK293 eTLR cells [2])	enhancement of CRISPR-mediated homology-directed repair (HDR) [3]
NU7441	increased HDR rates			
Cc1cc2ncnn2cc1Nc1ncc2c(n1)n(C1CCOCC1)c(=O)n2C [AZD-7648]	increased HDR rates	0.5 µM	significantly higher HDR rates than ITD Alt-R HDR Enhancer V2	
COc1ccc([C@@H](O)c2cc(-c3ncnc4cc(N5CCOCC5)ccc34)c(F)cc2Cl)nn1 [M3814]	increased HDR rates		significantly higher HDR rates than ITD Alt-R HDR Enhancer V2	
c1cnccn1 [SCR7 pyrazine]				up to 19 fold
